Laboratory results reported in ChEMBL document CHEMBL1208782, “Synthesis and pharmacological validation of a novel series of non-steroidal FXR agonists” (Bioorg Med Chem Lett, 2010).

Assays:
Assay type in all cases: functional, cell-based
[1] = biological target: T1, Nuclear receptor subfamily 1 group I member 3 (Homo sapiens, UniProt Q14994); assay: Agonist activity at CAR-LBD expressed in HEK293 cells assessed as Gal4-DBD interaction by cellular mammalian one hybrid assay
T1 sequence (Q14994 whole entry): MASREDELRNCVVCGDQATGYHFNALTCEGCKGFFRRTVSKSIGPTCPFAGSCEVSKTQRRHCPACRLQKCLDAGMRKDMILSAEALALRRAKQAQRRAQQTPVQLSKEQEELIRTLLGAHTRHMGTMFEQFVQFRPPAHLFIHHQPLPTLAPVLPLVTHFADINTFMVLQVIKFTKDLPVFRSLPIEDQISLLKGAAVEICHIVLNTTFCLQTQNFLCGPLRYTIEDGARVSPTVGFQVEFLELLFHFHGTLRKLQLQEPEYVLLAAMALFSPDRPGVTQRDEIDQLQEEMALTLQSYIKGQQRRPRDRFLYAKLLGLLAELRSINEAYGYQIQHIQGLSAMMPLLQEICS

[2] = biological target: T2, Peroxisome proliferator-activated receptor alpha (Homo sapiens) (UniProt Q07869); assay: Agonist activity at PPARalpha-LBD expressed in HEK293 cells assessed as Gal4-DBD interaction by cellular mammalian one hybrid assay relative to GW-7467
T2 sequence (whole entry): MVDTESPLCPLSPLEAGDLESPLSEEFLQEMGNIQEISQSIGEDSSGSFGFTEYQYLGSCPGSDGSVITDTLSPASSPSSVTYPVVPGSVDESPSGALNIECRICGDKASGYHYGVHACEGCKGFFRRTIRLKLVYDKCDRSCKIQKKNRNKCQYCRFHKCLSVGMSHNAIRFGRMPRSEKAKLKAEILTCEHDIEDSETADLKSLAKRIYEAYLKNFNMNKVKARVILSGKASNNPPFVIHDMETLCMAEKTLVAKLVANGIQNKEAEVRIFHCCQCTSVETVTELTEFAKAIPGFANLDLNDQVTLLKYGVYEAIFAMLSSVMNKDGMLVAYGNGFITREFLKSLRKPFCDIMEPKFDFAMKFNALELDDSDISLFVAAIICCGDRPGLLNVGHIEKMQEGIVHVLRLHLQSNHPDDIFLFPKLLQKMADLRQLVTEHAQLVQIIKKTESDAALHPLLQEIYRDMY

[3] = biological target: T3, Oxysterols receptor LXR-beta (Homo sapiens, UniProt P55055); assay: Agonist activity at LXRbeta-LBD expressed in HEK293 cells assessed as Gal4-DBD interaction by cellular mammalian one hybrid assay
T3 sequence (P55055 whole entry): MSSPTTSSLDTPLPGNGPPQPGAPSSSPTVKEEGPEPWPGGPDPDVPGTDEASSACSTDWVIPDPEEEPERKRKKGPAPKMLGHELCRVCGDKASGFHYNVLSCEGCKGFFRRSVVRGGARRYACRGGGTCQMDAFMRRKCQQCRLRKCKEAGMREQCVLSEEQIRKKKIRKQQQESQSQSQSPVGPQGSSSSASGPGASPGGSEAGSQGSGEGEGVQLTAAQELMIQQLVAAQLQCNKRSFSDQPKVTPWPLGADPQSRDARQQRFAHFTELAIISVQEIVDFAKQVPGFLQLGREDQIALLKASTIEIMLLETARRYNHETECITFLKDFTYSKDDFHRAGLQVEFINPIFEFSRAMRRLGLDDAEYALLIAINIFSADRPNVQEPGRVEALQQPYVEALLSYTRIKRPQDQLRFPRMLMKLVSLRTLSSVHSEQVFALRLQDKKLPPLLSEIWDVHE

[4] = biological target: T4, Androgen receptor (Homo sapiens) (UniProt P10275); assay: Agonist activity at androgen receptor-LBD expressed in HEK293 cells assessed as Gal4-DBD interaction by cellular mammalian one hybrid assay relative to androgen
T4 sequence (whole entry): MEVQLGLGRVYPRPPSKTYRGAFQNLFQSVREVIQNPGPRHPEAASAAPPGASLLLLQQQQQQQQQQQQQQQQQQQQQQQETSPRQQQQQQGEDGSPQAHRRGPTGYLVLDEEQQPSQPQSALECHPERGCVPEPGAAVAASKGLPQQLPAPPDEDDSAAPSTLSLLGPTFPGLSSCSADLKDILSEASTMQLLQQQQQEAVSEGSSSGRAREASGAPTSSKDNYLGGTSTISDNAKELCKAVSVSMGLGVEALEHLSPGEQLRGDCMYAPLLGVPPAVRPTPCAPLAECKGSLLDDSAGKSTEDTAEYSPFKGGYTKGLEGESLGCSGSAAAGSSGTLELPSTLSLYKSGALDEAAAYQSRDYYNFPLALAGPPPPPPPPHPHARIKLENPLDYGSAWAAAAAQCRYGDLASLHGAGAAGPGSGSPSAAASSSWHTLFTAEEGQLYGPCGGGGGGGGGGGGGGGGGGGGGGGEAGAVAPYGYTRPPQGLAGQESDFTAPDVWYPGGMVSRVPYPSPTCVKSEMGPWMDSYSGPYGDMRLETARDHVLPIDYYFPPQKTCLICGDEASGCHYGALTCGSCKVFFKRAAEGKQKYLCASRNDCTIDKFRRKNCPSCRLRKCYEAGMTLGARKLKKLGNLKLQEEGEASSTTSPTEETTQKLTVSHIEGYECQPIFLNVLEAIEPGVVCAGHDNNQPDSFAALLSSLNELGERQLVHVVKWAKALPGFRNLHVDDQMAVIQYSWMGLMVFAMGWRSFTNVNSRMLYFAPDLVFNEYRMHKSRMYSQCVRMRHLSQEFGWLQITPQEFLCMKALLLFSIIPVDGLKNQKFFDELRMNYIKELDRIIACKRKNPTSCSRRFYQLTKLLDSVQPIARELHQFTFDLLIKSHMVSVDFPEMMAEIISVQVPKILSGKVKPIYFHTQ

[5] = biological target: T5, Peroxisome proliferator-activated receptor delta (Homo sapiens, UniProt Q03181); assay: Agonist activity at PPAR-beta/delta-LBD expressed in HEK293 cells assessed as Gal4-DBD interaction by cellular mammalian one hybrid assay
T5 sequence (Q03181 whole entry): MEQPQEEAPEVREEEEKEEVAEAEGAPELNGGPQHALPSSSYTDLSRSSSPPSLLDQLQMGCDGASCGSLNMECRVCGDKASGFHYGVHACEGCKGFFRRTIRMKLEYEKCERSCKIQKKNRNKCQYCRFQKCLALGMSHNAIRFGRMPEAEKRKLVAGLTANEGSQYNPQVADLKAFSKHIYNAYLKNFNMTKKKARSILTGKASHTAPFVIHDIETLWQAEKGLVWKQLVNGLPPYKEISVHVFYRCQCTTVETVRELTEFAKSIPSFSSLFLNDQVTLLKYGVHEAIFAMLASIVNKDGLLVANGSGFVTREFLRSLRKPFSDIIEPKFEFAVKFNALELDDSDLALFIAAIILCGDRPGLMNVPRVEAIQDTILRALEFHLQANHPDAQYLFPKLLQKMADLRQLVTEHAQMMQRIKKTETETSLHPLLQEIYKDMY

EC50 [1] | Efficacy [2] | EC50 [3] | Efficacy [4] | EC50 [5] | SMILES
> 10 µM | 15% | > 10 µM | 0% | > 10 µM | CN(Cc1cccc(C(=O)O)c1)c1ccc(OCc2c(-c3c(Cl)cccc3Cl)noc2C2CC2)nc1C(F)(F)F
> 10 µM | 0% | > 10 µM | 0% | > 10 µM | CC(C)c1onc(-c2c(Cl)cccc2Cl)c1COc1ccc(N(C)Cc2ccc(C(=O)O)cc2)c(C(F)(F)F)n1
> 10 µM | 0% | > 10 µM | 0% | > 10 µM | CN(Cc1ccc(C(=O)O)cc1)c1ccc(OCc2c(-c3c(Cl)cccc3Cl)noc2C2CC2)nc1C(F)(F)F
